This note sets out measurements from patent EP1484330B1, “Triazole compouds suitable for treating disorders that respond to modulation of the dopamine D3 receptor” (Abbott GmbH & Co. KG, priority 2003, dated 2004).

Series [1] is described as follows: Determination of the concentration of compounds in plasma and brain following oral dosing. The note with it: rats, 10 mg/kg orally by gavage; samples at 0.5, 3 and 8 hours; value Cmax. The format is in vivo, Male Sprague-Dawley rats. The procedure: Male Sprague-Dawley rats were used in this study (2 to 4 per experiment). The animals were fasted overnight prior to dosing and throughout the duration of the study but were permitted water ad libitum. Each rat received a 10 mg/kg (5 mL/kg) dose orally by gavage. At 0.5, 3 and 8 hours after drug administration, three animals were put under deep anesthesia using isoflurane and euthanized by bleeding (cardiac puncture) under deep isoflurane anesthesia. EDTA blood samples and brain tissue will be collected from each rat. Upon collection, the samples were promptly placed in an ice bath, and within 2 hours after sample collection, the blood was centrifuged at about 4°C. The resulting brain and plasma samples were placed in clean glass tubes and stored in a freezer until analysis. The plasma samples were assayed for parent compound using appropriate liquid chromatography - mass spectrometry procedures. The results are given in table 2 along with results obtained using the two reference compounds A and B, and illustrate the high brain concentrations attainable with the compounds of the invention.

Series [2] has as its target T1, human dopamine D3 receptors (Homo sapiens, UniProt P35462).
T1 construct: expressed in transfected cells; membranes used
The series is described as follows: Receptor binding study, displacement of [125I]-iodosulpride from HEK-293 cell membranes. As to conditions: for Ki: 0.1 nM [125I]-iodosulpride, HEK-293 membranes, 25°C, 60 minutes; for Selectivity [Ki(D2)/Ki(D3)]: ratio Ki(D2)/Ki(D3). The procedure:
(§1) The substance to be tested was either dissolved in methanol/Chremophor® (BASF-AG) or in dimethyl sulfoxide and then diluted with water to the desired concentration.
(§2) Each assay mixture was run in triplicate.
The incubation buffer contained 50 mM tris, 120 mM NaCl, 5 mM KCI, 2 mM CaCl2, 2 mM MgCl2 and 0.1% bovine serum albumin, 10 µM quinolone and 0.1% ascorbic acid (prepared fresh daily). The buffer was adjusted to pH 7.4 with HCl.
(§3) After having been incubated at 25°C for 60 minutes, the assay mixtures were filtered through a Wathman GF/B glass fiber filter under vacuum using a cell collecting device. The filters were transferred to scintillation viols using a filter transfer system. After 4 ml of Ultima Gold® (Packard) have been added, the samples were shaken for one hour and the radioactivity was then counted in a Beta-Counter (Packard, Tricarb 2000 or 2200CA). The cpm values were converted into dpm using a standard quench series and the program belonging to the instrument.
(§4) The inhibition curves were analyzed by means of iterative nonlinear regression analysis using the Statistical Analysis System (SAS) which is similar to the "LIGAND" program described by Munson and Rodbard.
(In general: Loss of bound radioactivity is the signal in a displacement assay; it reports binding, not function.)

The target in series [3] is T2, human dopamine D2L receptors (long isoform) (Homo sapiens, UniProt P14416).
T2 construct: expressed in transfected cells; membranes used
T2 sequence (P14416 whole entry, canonical isoform): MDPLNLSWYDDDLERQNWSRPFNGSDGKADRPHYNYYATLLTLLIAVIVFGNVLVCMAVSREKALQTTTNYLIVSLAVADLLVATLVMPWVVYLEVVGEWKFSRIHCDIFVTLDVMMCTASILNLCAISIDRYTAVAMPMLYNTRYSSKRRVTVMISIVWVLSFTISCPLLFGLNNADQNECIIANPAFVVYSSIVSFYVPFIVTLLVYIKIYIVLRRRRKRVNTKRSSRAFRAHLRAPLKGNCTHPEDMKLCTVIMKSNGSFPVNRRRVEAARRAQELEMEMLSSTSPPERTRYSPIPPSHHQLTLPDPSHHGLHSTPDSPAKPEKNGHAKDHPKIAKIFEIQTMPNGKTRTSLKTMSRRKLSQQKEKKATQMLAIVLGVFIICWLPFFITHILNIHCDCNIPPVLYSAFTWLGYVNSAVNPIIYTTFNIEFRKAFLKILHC
Put plainly: Receptor binding study, displacement of [125I] iodospiperone from HEK-293 cell membranes. As to conditions: 0.01 nM [125I] iodospiperone, HEK-293 membranes, 25°C, 60 minutes, read-out: Ki D2. The procedure: as §1, §2
The incubation buffer contained 50 mM tris, 120 mM NaCl, 5 mM KCl, 2 mM CaCl2, 2 mM MgCl2 and 0.1% bovine serum albumin. The buffer was adjusted to pH 7.4 with HCl.
as §3, §4

Structures are written as SMILES.

Broadly, the Ki is a measure of affinity in units of concentration, obtained from inhibition or displacement.

T1 sequence (P35462 whole entry): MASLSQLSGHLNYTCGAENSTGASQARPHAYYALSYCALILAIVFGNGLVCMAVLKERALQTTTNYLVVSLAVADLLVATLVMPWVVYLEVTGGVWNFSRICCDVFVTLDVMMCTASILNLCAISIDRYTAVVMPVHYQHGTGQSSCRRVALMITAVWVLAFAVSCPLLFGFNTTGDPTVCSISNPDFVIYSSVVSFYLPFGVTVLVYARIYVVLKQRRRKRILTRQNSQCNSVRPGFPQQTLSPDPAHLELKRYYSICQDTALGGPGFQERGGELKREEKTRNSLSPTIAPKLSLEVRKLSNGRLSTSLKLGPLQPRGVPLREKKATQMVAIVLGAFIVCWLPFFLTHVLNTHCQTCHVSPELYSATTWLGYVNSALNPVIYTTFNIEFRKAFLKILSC

In the case of `Cn1c(N)nnc1SCCCN1CCN(c2cc(C(C)(C)C)nc(C(C)(C)C)n2)CC1` [A*, reference compound], the Brain level in series [1] is listed as 387 ng/g.
In series [1], `Cn1c(N)nnc1SCCCN1CCN(c2cc(C(F)(F)F)nc(C(C)(C)C)n2)CC1` [B*, reference compound] showed a Brain level of 143 ng/g.
Turning to `Cc1nnc(SCCCN2CCN(c3cc(C(C)(C)C)nc(C(C)(C)C)n3)CC2)n1C.Cl` [Example 1, 2-tert-Butyl-4-{4-[3-(4-methyl-5-methyl-4H-[1,2,4]triazol-3-ylsulfanyl)-propyl]-piperazin-1-yl}-6-tert-butyl-pyrimidine hydrochloride], in series [2], the affinity corresponds to a Ki of 0.0011 µM and the “Selectivity [Ki(D2)/Ki(D3)]” value was 160. In series [3], the Ki worked out at 0.176 µM. The Brain level in series [1] amounted to 559 ng/g.
For the compound `Cl.Cn1cnnc1SCCCN1CCN(c2cc(C(C)(C)C)nc(C(C)(C)C)n2)CC1` [Example 2, 2-tert-Butyl-4-{4-[3-(4-methyl-4H-[1,2,4]triazol-3-ylsulfanyl)-propyl]-piperazin-1-yl}-6-tert-butyl-pyrimidine hydrochloride], in series [2], the Ki amounted to 0.0017 µM and the “Selectivity [Ki(D2)/Ki(D3)]” value was determined as 75. In addition, the Ki in series [3] came to 0.127 µM. In addition, the Brain level in series [1] was determined as 1835 ng/g.
In the case of `CCCc1cc(N2CCN(CCCSc3nncn3C)CC2)nc(C(C)(C)C)n1.O=C(O)/C=C/C(=O)O` [Example 3, 2-tert-Butyl-4-{4-[3-(4-methyl-4H-[1,2,4]triazol-3-ylsulfanyl)-propyl]-piperazin-1-yl}-6-propyl-pyrimidine fumarate], in series [2], affinity was put at a Ki of 0.0033 µM and the “Selectivity [Ki(D2)/Ki(D3)]” value stood at 125. Also, the Ki in series [3] is 0.412 µM. Besides, the Brain level in series [1] turned out to be 1000 ng/g.
Consider `CCCc1cc(N2CCN(CCCSc3nnc(C)n3C)CC2)nc(C(C)(C)C)n1.Cl` [Example 4, 2-tert-Butyl-4-{4-[3-(4-methyl-5-methyl-4H-[1,2,4]triazol-3-ylsulfanyl)-propyl]-piperazin-1-yl}-6-propyl-pyrimidine hydrochloride], for which, in series [2], the affinity corresponds to a Ki of 0.0026 µM and the “Selectivity [Ki(D2)/Ki(D3)]” value worked out at 83. Further, the Ki in series [3] turned out to be 0.216 µM. In series [1], this compound came in with a Brain level of 483 ng/g.
Take `Cc1nnc(SCCCN2CCN(c3cc(C(F)(F)F)nc(C(C)(C)C)n3)CC2)n1C.Cl` [Example 5, 2-tert-Butyl-4-{4-[3-(4-methyl-5-methyl-4H-[1,2,4]triazol-3-ylsulfanyl)-propyl]-piperazin-1-yl}-6-trifluoromethyl-pyrimidine hydrochloride]: in series [2], affinity was put at a Ki of 0.0037 µM and the “Selectivity [Ki(D2)/Ki(D3)]” value amounted to 84. The Ki in series [3] turned out to be 0.311 µM. The same compound had a Brain level in series [1] of 904 ng/g.
In the case of `Cl.Cn1cnnc1SCCCN1CCN(c2cc(C(F)(F)F)nc(C(C)(C)C)n2)CC1` [Example 6, 2-tert-Butyl-4-{4-[3-(4-methyl-4H-[1,2,4]triazol-3-ylsulfanyl)-propyl]-piperazin-1-yl}-6-trifluoromethyl-pyrimidine hydrochloride], in series [2], the Ki was determined as 0.0035 µM and the “Selectivity [Ki(D2)/Ki(D3)]” value stood at 134. Also, the Ki in series [3] is 0.469 µM. Besides, the Brain level in series [1] is reported as 2384 ng/g.
The like results for `Cl.Cn1cnnc1SCCCN1CCN(c2cc(C(F)F)nc(C(C)(C)C)n2)CC1` [Example 7, 2-tert-Butyl-4-{4-[3-(4-methyl-4H-[1,2,4]triazol-3-ylsulfanyl)-propyl]-piperazin-1-yl}-6-difluoromethyl-pyrimidine hydrochloride] were, in that order, 0.0029 µM, 146, 0.418 µM and 1430 ng/g.
With `Cc1nnc(SCCCN2CCN(c3cc(C(F)F)nc(C(C)(C)C)n3)CC2)n1C.Cl` [Example 8, 2-tert-Butyl-4-{4-[3-(4-methyl-5-methyl-4H-[1,2,4]triazol-3-ylsulfanyl)-propyl]-piperazin-1-yl}-6-difluoromethyl-pyrimidine hydrochloride], in series [2], the Ki was 0.0018 µM and the “Selectivity [Ki(D2)/Ki(D3)]” value stood at 224. For the same compound, the Ki in series [3] came to 0.401 µM.
